# Experiments:
# [1] = molecular target: Cyclin-dependent kinase 2/cyclin A (Homo sapiens, UniProt P24941); test: Inhibition of CDK2/Cyclin A; format: protein-complex assay
# [2] = test system: A2780; test: Antiproliferative activity against human A2780 cells after 72 hrs by cell-titer-glo assay; format: functional, cell-based; conditions: A2780, 72 h
# [3] = molecular target: T1, Aurora kinase A (Homo sapiens, UniProt O14965); test: Inhibition of Aurora A
# T1 sequence (O14965 whole entry): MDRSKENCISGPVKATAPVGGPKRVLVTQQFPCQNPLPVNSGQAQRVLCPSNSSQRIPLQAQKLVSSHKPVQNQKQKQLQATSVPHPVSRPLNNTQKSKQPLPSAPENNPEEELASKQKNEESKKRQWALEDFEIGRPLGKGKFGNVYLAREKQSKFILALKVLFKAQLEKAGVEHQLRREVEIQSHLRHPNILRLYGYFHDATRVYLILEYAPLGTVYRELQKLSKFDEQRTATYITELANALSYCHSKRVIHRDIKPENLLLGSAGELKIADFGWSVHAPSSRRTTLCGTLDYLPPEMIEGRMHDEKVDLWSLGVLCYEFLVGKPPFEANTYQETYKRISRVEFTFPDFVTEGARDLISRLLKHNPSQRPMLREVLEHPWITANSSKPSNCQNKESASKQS
# [4] = Solubility at pH 7.0; format: physicochemical; conditions: buffer
# [5] = molecular target: Cyclin-dependent kinase 2/cyclin E1 (Homo sapiens, UniProt P24941); test: Inhibition of CDK2/Cyclin E; format: protein-complex assay
# [6] = molecular target: Cyclin-dependent kinase 1/cyclin B1 (Homo sapiens, UniProt P06493); test: Inhibition of CDK1/Cyclin B; format: protein-complex assay
# [7] = molecular target: Cyclin-dependent kinase 5/CDK5 activator 1 (Homo sapiens, UniProt Q00535); test: Inhibition of CDK5/P25; format: protein-complex assay
# [8] = molecular target: Glycogen synthase kinase-3 beta (Homo sapiens, UniProt P49841); test: Inhibition of GSK3-beta
# [9] = molecular target: Tyrosine-protein kinase ABL1 (Homo sapiens, UniProt P00519); test: Inhibition of cABL
# [10] = molecular target: Activated CDC42 kinase 1 (Homo sapiens, UniProt Q07912); test: Inhibition of ACK1
# [11] = molecular target: ALK tyrosine kinase receptor (Homo sapiens, UniProt Q9UM73); test: Inhibition of ALK
# [12] = molecular target: RAC-alpha serine/threonine-protein kinase (Homo sapiens, UniProt P31749); test: Inhibition of AKT1
# [13] = molecular target: Aurora kinase B (Homo sapiens, UniProt Q96GD4); test: Inhibition of Aurora B
# [14] = molecular target: Protein-tyrosine kinase 6 (Homo sapiens, UniProt Q13882); test: Inhibition of BRK
# [15] = molecular target: Mitotic checkpoint serine/threonine-protein kinase BUB1 (Homo sapiens, UniProt O43683); test: Inhibition of BUB1
# [16] = molecular target: CDC7/DBF4 (Cell division cycle 7-related protein kinase/Activator of S phase kinase) (Homo sapiens, UniProt O00311); test: Inhibition of CDC7/DBF4; format: protein-complex assay
# [17] = molecular target: Serine/threonine-protein kinase Chk1 (Homo sapiens, UniProt O14757); test: Inhibition of CHK1
# [18] = molecular target: Eukaryotic elongation factor 2 kinase (Homo sapiens, UniProt O00418); test: Inhibition of EEF2K
# [19] = molecular target: Focal adhesion kinase 1 (Homo sapiens, UniProt Q05397); test: Inhibition of FAK
# [20] = molecular target: Fibroblast growth factor receptor 1 (Homo sapiens, UniProt P11362); test: Inhibition of FGFR1
# [21] = molecular target: Receptor-type tyrosine-protein kinase FLT3 (Homo sapiens, UniProt P36888); test: Inhibition of FLT3
# [22] = molecular target: Insulin-like growth factor 1 receptor (Homo sapiens, UniProt P08069); test: Inhibition of IGF1R
# [23] = molecular target: Inhibitor of nuclear factor kappa-B kinase subunit alpha (Homo sapiens, UniProt O15111); test: Inhibition of IKK1
# [24] = molecular target: Inhibitor of nuclear factor kappa-B kinase subunit beta (Homo sapiens, UniProt O14920); test: Inhibition of IKK2
# [25] = molecular target: Tyrosine-protein kinase JAK1 (Homo sapiens, UniProt P23458); test: Inhibition of JAK1
# [26] = molecular target: Tyrosine-protein kinase JAK3 (Homo sapiens, UniProt P52333); test: Inhibition of JAK3
# [27] = molecular target: Mast/stem cell growth factor receptor Kit (Homo sapiens, UniProt P10721); test: Inhibition of cKIT
# [28] = molecular target: Tyrosine-protein kinase Lyn (Homo sapiens, UniProt P07948); test: Inhibition of LYN
# [29] = molecular target: MAP kinase-activated protein kinase 2 (Homo sapiens, UniProt P49137); test: Inhibition of MAPKAPK2
# [30] = molecular target: Hepatocyte growth factor receptor (Homo sapiens, UniProt P08581); test: Inhibition of MET
# [31] = molecular target: MAP kinase-interacting serine/threonine-protein kinase 2 (Homo sapiens, UniProt Q9HBH9); test: Inhibition of MNK2
# [32] = molecular target: Serine/threonine-protein kinase 26 (Homo sapiens, UniProt Q9P289); test: Inhibition of MST4
# [33] = molecular target: Serine/threonine-protein kinase Nek6 (Homo sapiens, UniProt Q9HC98); test: Inhibition of NEK6
# [34] = molecular target: Serine/threonine-protein kinase PAK 4 (Homo sapiens, UniProt O96013); test: Inhibition of PAK4
# [35] = molecular target: Eukaryotic translation initiation factor 2-alpha kinase 3 (Homo sapiens, UniProt Q9NZJ5); test: Inhibition of PERK
# [36] = molecular target: Serine/threonine-protein kinase pim-1 (Homo sapiens, UniProt P11309); test: Inhibition of PIM1
# [37] = molecular target: Serine/threonine-protein kinase pim-2 (Homo sapiens, UniProt Q9P1W9); test: Inhibition of PIM2
# [38] = molecular target: Protein kinase C beta type (Homo sapiens, UniProt P05771); test: Inhibition of PKCbeta1
# [39] = molecular target: Serine/threonine-protein kinase PLK1 (Homo sapiens, UniProt P53350); test: Inhibition of PLK1
# [40] = molecular target: Tyrosine-protein kinase SYK (Homo sapiens, UniProt P43405); test: Inhibition of SYK
# [41] = molecular target: Vascular endothelial growth factor receptor 2 (Homo sapiens, UniProt P35968); test: Inhibition of VEGFR2
# [42] = molecular target: Vascular endothelial growth factor receptor 3 (Homo sapiens, UniProt P35916); test: Inhibition of VEGFR3
# [43] = molecular target: Tyrosine-protein kinase ZAP-70 (Homo sapiens, UniProt P43403); test: Inhibition of ZAP70
# [44] = molecular target: Mitogen-activated protein kinase 1 (Homo sapiens, UniProt P28482)
# Chain of CDC7/DBF4 (Cell division cycle 7-related protein kinase/Activator of S phase kinase) (Q9UBU7 whole entry): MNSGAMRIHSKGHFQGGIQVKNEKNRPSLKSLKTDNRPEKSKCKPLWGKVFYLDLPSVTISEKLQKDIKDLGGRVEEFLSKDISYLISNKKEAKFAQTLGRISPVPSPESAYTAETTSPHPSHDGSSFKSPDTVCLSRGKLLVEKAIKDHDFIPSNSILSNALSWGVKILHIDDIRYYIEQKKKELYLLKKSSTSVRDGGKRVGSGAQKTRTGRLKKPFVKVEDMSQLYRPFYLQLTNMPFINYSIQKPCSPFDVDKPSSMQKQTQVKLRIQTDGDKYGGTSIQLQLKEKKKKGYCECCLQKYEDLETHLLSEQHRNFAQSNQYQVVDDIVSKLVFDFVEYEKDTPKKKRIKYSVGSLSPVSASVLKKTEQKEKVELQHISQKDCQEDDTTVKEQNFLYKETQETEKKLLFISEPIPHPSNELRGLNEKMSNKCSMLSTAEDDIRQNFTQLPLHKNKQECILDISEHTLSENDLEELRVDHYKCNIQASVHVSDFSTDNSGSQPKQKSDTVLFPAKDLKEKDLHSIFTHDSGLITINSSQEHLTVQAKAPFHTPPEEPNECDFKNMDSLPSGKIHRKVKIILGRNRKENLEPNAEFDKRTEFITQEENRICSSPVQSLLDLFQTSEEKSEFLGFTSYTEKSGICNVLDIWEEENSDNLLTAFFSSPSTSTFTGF
# Chain of CDC7/DBF4 (Cell division cycle 7-related protein kinase/Activator of S phase kinase) (O00311 whole entry): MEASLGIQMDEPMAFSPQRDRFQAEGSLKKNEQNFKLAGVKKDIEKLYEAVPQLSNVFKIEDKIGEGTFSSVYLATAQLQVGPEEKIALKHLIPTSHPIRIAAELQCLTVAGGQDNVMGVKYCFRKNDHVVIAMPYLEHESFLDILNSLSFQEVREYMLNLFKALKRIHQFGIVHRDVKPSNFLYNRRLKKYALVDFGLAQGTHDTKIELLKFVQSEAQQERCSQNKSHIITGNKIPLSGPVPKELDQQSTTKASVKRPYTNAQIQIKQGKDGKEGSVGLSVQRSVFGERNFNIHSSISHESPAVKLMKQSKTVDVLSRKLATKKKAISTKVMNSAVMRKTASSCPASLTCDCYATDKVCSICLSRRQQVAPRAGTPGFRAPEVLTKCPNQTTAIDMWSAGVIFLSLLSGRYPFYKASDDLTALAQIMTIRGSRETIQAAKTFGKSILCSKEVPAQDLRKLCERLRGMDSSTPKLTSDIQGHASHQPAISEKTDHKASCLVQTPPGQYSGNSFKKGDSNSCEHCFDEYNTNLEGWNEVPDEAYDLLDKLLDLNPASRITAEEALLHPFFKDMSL
# Chain of Mast/stem cell growth factor receptor Kit (P10721 whole entry): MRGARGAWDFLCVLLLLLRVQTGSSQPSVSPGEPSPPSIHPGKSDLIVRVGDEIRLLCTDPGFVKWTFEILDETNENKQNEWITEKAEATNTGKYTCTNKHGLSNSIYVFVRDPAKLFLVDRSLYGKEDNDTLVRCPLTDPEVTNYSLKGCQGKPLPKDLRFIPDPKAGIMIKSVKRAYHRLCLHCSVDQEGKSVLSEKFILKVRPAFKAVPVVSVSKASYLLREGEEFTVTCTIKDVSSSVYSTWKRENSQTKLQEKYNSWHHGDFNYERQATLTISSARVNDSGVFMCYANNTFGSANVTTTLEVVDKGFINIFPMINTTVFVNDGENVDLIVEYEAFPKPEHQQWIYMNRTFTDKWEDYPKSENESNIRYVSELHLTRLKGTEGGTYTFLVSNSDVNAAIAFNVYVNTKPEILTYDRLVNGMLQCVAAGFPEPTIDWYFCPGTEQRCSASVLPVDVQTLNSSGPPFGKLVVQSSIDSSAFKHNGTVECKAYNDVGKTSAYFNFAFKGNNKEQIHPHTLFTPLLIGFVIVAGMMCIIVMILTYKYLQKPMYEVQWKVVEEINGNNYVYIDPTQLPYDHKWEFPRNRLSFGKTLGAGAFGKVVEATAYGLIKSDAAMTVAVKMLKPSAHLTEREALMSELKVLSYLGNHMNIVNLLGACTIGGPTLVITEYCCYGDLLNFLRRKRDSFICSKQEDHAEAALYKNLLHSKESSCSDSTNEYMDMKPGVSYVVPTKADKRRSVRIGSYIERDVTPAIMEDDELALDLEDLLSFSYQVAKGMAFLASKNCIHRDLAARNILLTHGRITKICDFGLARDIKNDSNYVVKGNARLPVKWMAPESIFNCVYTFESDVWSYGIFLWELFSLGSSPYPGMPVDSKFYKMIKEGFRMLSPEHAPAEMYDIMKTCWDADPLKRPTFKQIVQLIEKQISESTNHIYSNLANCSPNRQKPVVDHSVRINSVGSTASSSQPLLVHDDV
# Chain of Focal adhesion kinase 1 (Q05397 whole entry): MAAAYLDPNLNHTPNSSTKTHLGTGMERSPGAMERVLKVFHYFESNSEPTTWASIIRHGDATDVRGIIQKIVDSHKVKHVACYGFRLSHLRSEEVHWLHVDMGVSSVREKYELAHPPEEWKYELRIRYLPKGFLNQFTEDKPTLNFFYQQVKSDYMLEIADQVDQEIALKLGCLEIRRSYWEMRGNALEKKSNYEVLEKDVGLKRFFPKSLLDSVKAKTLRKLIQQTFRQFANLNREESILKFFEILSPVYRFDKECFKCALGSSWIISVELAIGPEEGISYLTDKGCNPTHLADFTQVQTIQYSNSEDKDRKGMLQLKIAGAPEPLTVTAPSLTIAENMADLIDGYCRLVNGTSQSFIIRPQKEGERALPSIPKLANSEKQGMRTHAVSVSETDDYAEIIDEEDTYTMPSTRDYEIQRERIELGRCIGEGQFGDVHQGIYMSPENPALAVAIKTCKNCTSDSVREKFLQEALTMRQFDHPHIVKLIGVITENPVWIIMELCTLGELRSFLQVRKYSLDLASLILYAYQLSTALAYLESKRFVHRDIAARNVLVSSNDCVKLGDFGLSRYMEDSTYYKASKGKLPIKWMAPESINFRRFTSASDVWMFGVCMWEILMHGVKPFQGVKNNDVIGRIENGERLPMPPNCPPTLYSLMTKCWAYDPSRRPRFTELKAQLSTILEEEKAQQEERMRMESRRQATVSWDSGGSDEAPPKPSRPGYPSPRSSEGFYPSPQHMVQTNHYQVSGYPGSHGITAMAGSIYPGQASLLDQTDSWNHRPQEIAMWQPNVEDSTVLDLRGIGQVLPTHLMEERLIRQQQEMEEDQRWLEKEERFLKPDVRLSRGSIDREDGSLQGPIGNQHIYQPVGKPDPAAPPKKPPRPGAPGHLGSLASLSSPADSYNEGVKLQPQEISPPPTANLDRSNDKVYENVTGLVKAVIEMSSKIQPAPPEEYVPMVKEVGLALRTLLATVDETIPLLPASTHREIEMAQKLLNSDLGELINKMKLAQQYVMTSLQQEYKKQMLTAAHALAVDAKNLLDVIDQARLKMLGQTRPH
# Chain of Receptor-type tyrosine-protein kinase FLT3 (P36888 whole entry): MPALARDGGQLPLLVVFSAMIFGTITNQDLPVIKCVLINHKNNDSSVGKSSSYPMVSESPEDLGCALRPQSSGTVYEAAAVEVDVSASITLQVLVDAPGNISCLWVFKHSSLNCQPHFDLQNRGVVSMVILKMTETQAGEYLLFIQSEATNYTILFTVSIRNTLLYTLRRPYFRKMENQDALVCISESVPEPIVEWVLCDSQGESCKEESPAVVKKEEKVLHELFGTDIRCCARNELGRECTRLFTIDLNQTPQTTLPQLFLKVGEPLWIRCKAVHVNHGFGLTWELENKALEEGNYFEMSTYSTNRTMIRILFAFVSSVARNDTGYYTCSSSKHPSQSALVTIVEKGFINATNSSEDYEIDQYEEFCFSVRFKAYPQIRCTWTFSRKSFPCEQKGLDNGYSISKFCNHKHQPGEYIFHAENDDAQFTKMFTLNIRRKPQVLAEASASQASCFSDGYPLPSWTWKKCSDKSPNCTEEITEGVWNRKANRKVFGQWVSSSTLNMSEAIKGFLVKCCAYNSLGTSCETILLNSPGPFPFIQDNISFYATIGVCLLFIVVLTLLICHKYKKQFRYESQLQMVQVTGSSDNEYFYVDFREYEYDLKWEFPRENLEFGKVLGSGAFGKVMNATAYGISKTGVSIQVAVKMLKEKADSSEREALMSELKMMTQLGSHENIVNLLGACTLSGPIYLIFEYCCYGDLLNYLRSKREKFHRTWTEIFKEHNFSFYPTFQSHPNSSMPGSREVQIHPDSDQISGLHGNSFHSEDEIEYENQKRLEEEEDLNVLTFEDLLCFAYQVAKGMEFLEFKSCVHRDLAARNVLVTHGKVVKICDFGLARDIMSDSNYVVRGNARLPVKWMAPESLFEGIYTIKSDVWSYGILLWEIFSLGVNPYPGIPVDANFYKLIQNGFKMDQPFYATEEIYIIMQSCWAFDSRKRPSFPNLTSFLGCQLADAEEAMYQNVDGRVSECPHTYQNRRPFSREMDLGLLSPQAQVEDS
# Chain of Protein kinase C beta type (P05771 whole entry): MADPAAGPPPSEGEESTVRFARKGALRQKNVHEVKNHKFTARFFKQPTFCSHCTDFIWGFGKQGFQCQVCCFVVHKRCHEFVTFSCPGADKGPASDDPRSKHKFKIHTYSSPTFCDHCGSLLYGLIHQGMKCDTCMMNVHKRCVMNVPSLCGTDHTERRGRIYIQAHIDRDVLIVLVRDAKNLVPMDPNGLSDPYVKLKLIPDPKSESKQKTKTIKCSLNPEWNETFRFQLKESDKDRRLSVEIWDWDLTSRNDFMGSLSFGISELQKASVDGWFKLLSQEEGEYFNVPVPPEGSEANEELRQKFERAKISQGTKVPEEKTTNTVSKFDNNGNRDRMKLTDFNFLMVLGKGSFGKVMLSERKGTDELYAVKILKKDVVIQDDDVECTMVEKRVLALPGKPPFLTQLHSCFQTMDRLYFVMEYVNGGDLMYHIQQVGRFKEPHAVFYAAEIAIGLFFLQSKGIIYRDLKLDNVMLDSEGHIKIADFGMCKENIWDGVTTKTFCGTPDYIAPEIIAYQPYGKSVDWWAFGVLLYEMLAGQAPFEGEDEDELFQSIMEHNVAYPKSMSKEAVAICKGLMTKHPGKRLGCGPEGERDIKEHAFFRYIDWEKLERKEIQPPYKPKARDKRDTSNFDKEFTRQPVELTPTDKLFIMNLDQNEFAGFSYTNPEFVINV
smiles,measurement,setting,value
CC(=O)N1CCC(Nc2ncc3c(n2)-c2c(c(C(N)=O)nn2C)CC3)CC1,IC50,[1],2 nM
same,IC50,[2],200 nM
same,IC50,[3],> 10 µM
same,solubility,[4],216 µM
same,IC50,[5],7 nM
same,IC50,[6],5 nM
same,IC50,[7],9 nM
same,IC50,[8],28 nM
same,IC50,[9],> 10 µM
same,IC50,[10],> 10 µM
same,IC50,[11],> 10 µM
same,IC50,[12],> 10 µM
same,IC50,[13],> 10 µM
same,IC50,[14],> 10 µM
same,IC50,[15],> 10 µM
same,IC50,[16],> 10 µM
same,IC50,[17],> 10 µM
same,IC50,[18],> 10 µM
same,IC50,[19],> 10 µM
same,IC50,[20],> 10 µM
same,IC50,[21],> 10 µM
same,IC50,[22],> 10 µM
same,IC50,[23],> 10 µM
same,IC50,[24],> 10 µM
same,IC50,[25],> 10 µM
same,IC50,[26],> 10 µM
same,IC50,[27],> 10 µM
same,IC50,[28],> 10 µM
same,IC50,[29],> 10 µM
same,IC50,[30],> 10 µM
same,IC50,[31],> 10 µM
same,IC50,[32],> 10 µM
same,IC50,[33],> 10 µM
same,IC50,[34],> 10 µM
same,IC50,[35],> 10 µM
same,IC50,[36],> 10 µM
same,IC50,[37],> 10 µM
same,IC50,[38],> 10 µM
same,IC50,[39],> 10 µM
same,IC50,[40],> 10 µM
same,IC50,[41],> 10 µM
same,IC50,[42],> 10 µM
same,IC50,[43],> 10 µM
same,IC50,[44],212 nM

# — ChEMBL document CHEMBL1157561, “Identification of potent pyrazolo[4,3-h]quinazoline-3-carboxamides as multi-cyclin-dependent kinase inhibitors” (J Med Chem, 2010)
